Test results taken from US4267192A, “Method for treating inflammation” (priority 1980, dated 1981).
Read-outs that look alike come from different tables or passages of the source.

Legend:
[1] = system: adjuvant arthritis in rats; test: Adjuvant Arthritis Test, periodic administration (with daily regimen for comparison); details: rat; for Increase in Paw Volume 0-16 days (left paw) / Increase in Right Paw Volume (ml.) 0-4 days: mean ± S.E.
[2] = system: established adjuvant arthritis in rats; test: established adjuvant arthritis, dosing on days 16, 17 and 18; details: rat
[3] = system: rat stomach (gastric ulcers, gastric swelling); type: in vivo, rat (male Charles River, Sprague-Dawley); details: for Number of Animals With Gastric Swelling / Number of Animals With Gastric Ulcers: 4 hours after dosing
Experimental: The rats are divided into groups 6-10 and dosed by the oral route with test compound, on a mg/kg. body weight basis, or vehicle control, 0.5% carboxymethylcellulose, in a volume of 3 ml. per rat. Four hours after dosing, the rats are decapitated and exsanguinated. Stomachs are removed and examined for gastric swelling and then opened and washed for visual inspection of gastric ulcers. Only one lesion or gastric bleeding is necessary for a positive response. Data is reported quantally.

[4] = system: polyarthritis induced by Mycobacterium butyricum or tuberculosis in rats; details: for Increase in Left Paw Volume (ml.) 0-16 days / Increase in Right Paw Volume (ml.) 0-4 days: mean ± S.E.
[5] = oral 2 mg/kg, Daily (0-15) except weekends
[6] = oral 6 mg/kg, Daily (0-15) except weekends
[7] = oral 18 mg/kg, Daily (0-15) except weekends
[8] = rat, oral 3.0 mg/kg daily, Table 3 group a
[9] = rat, oral 5.0 mg/kg daily, Table 3 group b
[10] = rat, oral 10.0 mg/kg daily, Table 3 group a
[11] = rat, oral 10.0 mg/kg daily, Table 3 group b
[12] = rat, oral 25.0 mg/kg daily, Table 3 group b
[13] = rat, oral 30.0 mg/kg daily, Table 3 group a
[14] = rat, oral 100.0 mg/kg daily, Table 3 group a
[15] = rat, oral 300.0 mg/kg daily, Table 3 group a

With O=C(O)C=C1c2ccccc2C=Cc2ccccc21 [DCHA] the “activity in short term dosing regimen” value ([1]; days 2, 3, 4) was “less so”, the “activity in short term dosing regimen” value ([1]; days 8, 9, 10) was “active” and the “% Change of Left Paw Edema at Day 16” value [1, 5] was “+12%”. The “% Change of Right Paw Edema at Day 4” value [1, 5] was “+17%”, the “Change In Body Weight (mean ± S.E.) 0-16 days” value (shortened to “Change In Body Weight”) [1, 5] was 8.9 ± 7.8 and the “Increase in Paw Volume 0-16 days (left paw)” value (“Increase … (left paw)” for short) [1, 5] was 0.82 ± 0.18. For the same compound, the “Increase in Right Paw Volume (ml.) 0-4 days” value (“Increase in Right Paw Volume” below) [1, 5] was 1.60 ± 0.08 mL, the “% Change of Left Paw Edema at Day 16” value [1, 6] was -16% and the “% Change of Right Paw Edema at Day 4” value [1, 6] was -24%. For the same compound, the “Change In Body Weight” value [1, 6] was 6.0 ± 4.8, the “Increase … (left paw)” value [1, 6] was 0.62 ± 0.04 and the “Increase in Right Paw Volume” value [1, 6] was 1.03 ± 0.06 mL. For the same compound, the “% Change of Left Paw Edema at Day 16” value ([1]; oral 10 mg/kg, Days 2,3,4) was -22%, the “% Change of Right Paw Edema at Day 4” value ([1]; oral 10 mg/kg, Days 2,3,4) was -33% and the “Change In Body Weight” value ([1]; oral 10 mg/kg, Days 2,3,4) was 14.7 ± 11.7. The “Increase … (left paw)” value ([1]; oral 10 mg/kg, Days 2,3,4) was 0.58 ± 0.13, the “Increase in Right Paw Volume” value ([1]; oral 10 mg/kg, Days 2,3,4) was 0.92 ± 0.07 mL and the “% Change of Left Paw Edema at Day 16” value ([1]; oral 10 mg/kg, Days 8,9,10) was -58%. For the same compound, the “Change In Body Weight” value ([1]; oral 10 mg/kg, Days 8,9,10) was 10.5 ± 7.9, the “Increase … (left paw)” value ([1]; oral 10 mg/kg, Days 8,9,10) was 0.31 ± 0.06 and the “% Change of Left Paw Edema at Day 16” value [1, 7] was -65%. The “% Change of Right Paw Edema at Day 4” value [1, 7] was -41%, the “Change In Body Weight” value [1, 7] was 18.3 ± 6.7 and the “Increase … (left paw)” value [1, 7] was 0.26 ± 0.05. The “Increase in Right Paw Volume” value [1, 7] was 0.81 ± 0.07 mL, the “return to pretreatment or higher edema levels” value ([2]; end of 30 days, 12 days after last dosing) was “no significant return to pretreatment or even higher edema levels” and the “% Change from Control, left paw edema (day 0-19)” value (from here on “% Change … (day 0-19)”) ([2]; oral 10 mg/kg, days 16, 17, 18) was -20%. The “% Change from Control, left paw edema (day 0-23)” value (“% Change … (day 0-23)” below) ([2]; oral 10 mg/kg, days 16, 17, 18) was -15%, the “% Change from Control, left paw edema (day 0-30)” value (shortened to “% Change … (day 0-30)”) ([2]; oral 10 mg/kg, days 16, 17, 18) was -21% and the “Increase in left paw edema ml. (day 0-19)” value (“Increase … (day 0-19)” for short) ([2]; oral 10 mg/kg, days 16, 17, 18) was 0.78 ± 0.11 mL. For the same compound, the “Increase in left paw edema ml. (day 0-23)” value (from here on “Increase … (day 0-23)”) ([2]; oral 10 mg/kg, days 16, 17, 18) was 0.82 ± 0.13 mL, the “Increase in left paw edema ml. (day 0-30)” value (from here on “Increase … (day 0-30)”) ([2]; oral 10 mg/kg, days 16, 17, 18) was 1.20 ± 0.16 mL and the “% Change … (day 0-19)” value ([2]; oral 30 mg/kg, days 16, 17, 18) was -26%. For the same compound, the “% Change … (day 0-23)” value ([2]; oral 30 mg/kg, days 16, 17, 18) was -10%, the “% Change … (day 0-30)” value ([2]; oral 30 mg/kg, days 16, 17, 18) was -29% and the “Increase … (day 0-19)” value ([2]; oral 30 mg/kg, days 16, 17, 18) was 0.75 ± 0.11 mL. The “Increase … (day 0-23)” value ([2]; oral 30 mg/kg, days 16, 17, 18) was 0.87 ± 0.16 mL, the “Increase … (day 0-30)” value ([2]; oral 30 mg/kg, days 16, 17, 18) was 1.07 ± 0.17 mL and the “% Change … (day 0-19)” value ([2]; oral 90 mg/kg, days 16, 17, 18) was -42%. The “% Change … (day 0-23)” value ([2]; oral 90 mg/kg, days 16, 17, 18) was -24%, the “% Change … (day 0-30)” value ([2]; oral 90 mg/kg, days 16, 17, 18) was -32% and the “Increase … (day 0-19)” value ([2]; oral 90 mg/kg, days 16, 17, 18) was 0.59 ± 0.06 mL. The “Increase … (day 0-23)” value ([2]; oral 90 mg/kg, days 16, 17, 18) was 0.73 ± 0.10 mL, the “Increase … (day 0-30)” value ([2]; oral 90 mg/kg, days 16, 17, 18) was 1.03 ± 0.11 mL and the “effect on left paw edema of rats with established adjuvant arthritis” value ([2]; oral, days 16, 17, 18) was “significant decrease in the left paw edema”. The gastric irritation ([3]; in words) was “neither causing gastric irritation nor affecting gastric secretions”, the “effect on gastric secretion” value ([3]; in words, high doses) was “no effect on gastric secretion” and the gastric ulceration ([3]; rat, doses up to 480 mg/kg, in words) was “no gastric ulceration”. The “Number of Animals With Gastric Swelling” value ([3]; rat, oral 60 mg/kg) was 0/6, the “Number of Animals With Gastric Ulcers” value ([3]; rat, oral 60 mg/kg) was 0/6 and the “Number of Animals With Gastric Swelling” value ([3]; rat, oral 120 mg/kg) was 0/6. For the same compound, the “Number of Animals With Gastric Ulcers” value ([3]; rat, oral 120 mg/kg) was 0/6, the “Number of Animals With Gastric Swelling” value ([3]; rat, oral 240 mg/kg) was 0/6 and the “Number of Animals With Gastric Ulcers” value ([3]; rat, oral 240 mg/kg) was 0/6. The “Number of Animals With Gastric Swelling” value ([3]; rat, oral 480 mg/kg) was 0/6, the “Number of Animals With Gastric Ulcers” value ([3]; rat, oral 480 mg/kg) was 0/6 and the “potency relative to aspirin” value ([4]; chronic inflammatory disease mediated mainly through immunological mechanisms, in words) was “several times more potent than aspirin”. For the same compound, the “toxicity at high doses” value ([4]; in words) was “no apparent toxicity at high doses”, the “% Change of Left Paw Edema at Day 16” value [4, 8] was -45% and the “% Change of Right Paw Edema at Day 4” value [4, 8] was -15%. The “Change In Body Weight” value [4, 8] was 22.5 ± 9.6, the “Increase in Left Paw Volume (ml.) 0-16 days” value (from here on “Increase in Left Paw Volume”) [4, 8] was 0.43 ± .09 mL and the “Increase in Right Paw Volume” value [4, 8] was 1.33 ± .11 mL. For the same compound, the “% Change of Left Paw Edema at Day 16” value [4, 9] was -5.4%, the “% Change of Right Paw Edema at Day 4” value [4, 9] was -30% and the “Change In Body Weight” value [4, 9] was 19.5 ± 5.8. The “Increase in Left Paw Volume” value [4, 9] was 0.70 ± .05 mL, the “Increase in Right Paw Volume” value [4, 9] was 1.30 ± .08 mL and the “% Change of Left Paw Edema at Day 16” value [4, 10] was -47%. For the same compound, the “% Change of Right Paw Edema at Day 4” value [4, 10] was -55%, the “Change In Body Weight” value [4, 10] was 25.6 ± 8.0 and the “Increase in Left Paw Volume” value [4, 10] was 0.41 ± .04 mL. The “Increase in Right Paw Volume” value [4, 10] was 0.70 ± .06 mL, the “% Change of Left Paw Edema at Day 16” value [4, 11] was -55% and the “% Change of Right Paw Edema at Day 4” value [4, 11] was -39%. The “Change In Body Weight” value [4, 11] was 33.3 ± 5.5, the “Increase in Left Paw Volume” value [4, 11] was 0.33 ± .06 mL and the “Increase in Right Paw Volume” value [4, 11] was 1.14 ± .04 mL. The “% Change of Left Paw Edema at Day 16” value [4, 12] was -47%, the “% Change of Right Paw Edema at Day 4” value [4, 12] was -47% and the “Change In Body Weight” value [4, 12] was 30.3 ± 5.7. For the same compound, the “Increase in Left Paw Volume” value [4, 12] was 0.39 ± .04 mL, the “Increase in Right Paw Volume” value [4, 12] was 1.00 ± .05 mL and the “% Change of Left Paw Edema at Day 16” value [4, 13] was -62%. The “% Change of Right Paw Edema at Day 4” value [4, 13] was -58%, the “Change In Body Weight” value [4, 13] was 45.8 ± 5.6 and the “Increase in Left Paw Volume” value [4, 13] was 0.30 ± .05 mL. The “Increase in Right Paw Volume” value [4, 13] was 0.66 ± .06 mL, the weight gain ([4]; rat, oral 100 mg/kg) was 51 g and the “% Change of Left Paw Edema at Day 16” value [4, 14] was -60%. For the same compound, the “% Change of Right Paw Edema at Day 4” value [4, 14] was -53%, the “Change In Body Weight” value [4, 14] was 50.6 ± 5.4 and the “Increase in Left Paw Volume” value [4, 14] was 0.31 ± .05 mL. For the same compound, the “Increase in Right Paw Volume” value [4, 14] was 0.74 ± .08 mL, the weight gain ([4]; rat, oral 300 mg/kg) was 58 g and the “% Change of Right Paw Edema at Day 4” value [4, 15] was -58%. The “Change In Body Weight” value [4, 15] was 58.2 ± 8.3, the “Increase in Left Paw Volume” value [4, 15] was 0.14 ± .06 mL and the “Increase in Right Paw Volume” value [4, 15] was 0.66 ± .05 mL. The “toxic signs or loss of body weight” value ([4]; rat, oral 100 and 300 mg/kg) was “did not show any toxic signs or loss of body weight”, the “anti-inflammatory activity in the adjuvant arthritis test” value ([4]; rat, oral, daily) was “significant anti-inflammatory activity” and the “estimated ED50 (adjuvant arthritis test)” value ([4]; rat, oral, daily) was ~15 mg/kg. The “active doses, right paw edema at 4 days (acute, non-specific inflammation)” value ([4]; rat, orally) was 10 to 300 mg/kg and the “effective doses, left paw edema (immunologically induced inflammation)” value ([4]; rat, orally) was 3-300 mg/kg.
